In test [1] the test system is vascular smooth muscle cells and endothelial cells. To be noted: cited from earlier work.
A further test concerns platelet activation. Conditions: cited from earlier work.
For a further test, the system named is mesangial cells. To be noted: cited from earlier work.
For test [2], the system named is unilateral ureteral obstruction. To be noted: model of unilateral ureteral obstruction; cited from earlier work.
A further test has as its system bone metastasis. Conditions: in vivo; cited from earlier work.
Another test has as its target human Edg-2 receptor (Homo sapiens, UniProt Q92633). Kind of test: Determination of Edg-2 receptor inhibition by FLIPR measurements (LPA-mediated calcium liberation). Type of test: cell-based. To be noted: CHO cells overexpressing human Edg-2 receptor, LPA 100 nM, fluo-4 calcium fluorescence; read-out: Inhibitory concentrations IC50 for inhibition of the Edg-2 receptor. The gist of the method: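 IC50 was derived from % inhibition of the baseline-corrected peak fluo-4 signal relative to DMSO, measured in triplicate. Compound was added ~5 min before 100 nM LPA (18:1) to human Edg-2–expressing CHO cells in pH 7.5 HBSS buffer with probenecid and HEPES, and fluorescence was monitored ~3 min.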

Chain of human Edg-2 receptor (Q92633 whole entry): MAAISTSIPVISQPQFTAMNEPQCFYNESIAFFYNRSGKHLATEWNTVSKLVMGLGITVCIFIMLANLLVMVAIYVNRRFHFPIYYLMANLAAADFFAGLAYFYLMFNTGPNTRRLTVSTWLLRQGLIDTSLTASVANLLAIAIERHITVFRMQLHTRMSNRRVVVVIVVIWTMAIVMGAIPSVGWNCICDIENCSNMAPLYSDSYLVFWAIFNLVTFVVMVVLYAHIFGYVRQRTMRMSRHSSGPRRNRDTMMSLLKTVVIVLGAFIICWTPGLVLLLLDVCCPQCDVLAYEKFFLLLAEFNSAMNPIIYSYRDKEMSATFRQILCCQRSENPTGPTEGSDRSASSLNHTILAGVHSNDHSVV

For “dioctanoylglycerol pyrophosphate [DGPP(8:0)]”, in test [1], the LPA-induced oxidative stress result is recorded as “attenuated”. Further, the “effects of LPA, moxLDL or lipid core extracts from human atherosclerotic plaques on platelet activation” value in the test with platelet activation is listed as “abrogated”. Besides, in the test on mesangial cells, the “LPA-induced proliferative response of mesangial cells” value was “inhibited”. For `Cc1noc(-c2ccc(CSCCC(=O)O)cc2)c1NC(=O)OC(C)c1ccccc1Cl` (stereo not shown) [Ki16425], the renal injury entry in test [2] is given as “attenuated”. The “progression of bone metastasis” value in the test on bone metastasis was “reduced”. On to `COc1ncc(C(=O)N[C@]2(C(=O)O)CC[C@@H](C)CC2)cc1OCCc1cccc(Cl)c1` [Example 85, trans-1-({5-[2-(3-chloro-phenyl)-ethoxy]-6-methoxy-pyridine-3-carbonyl}-amino)-4-methyl-cyclohexanecarboxylic acid], for which the IC50 at human Edg-2 receptor was below 100 nM.

In the case of `COc1ncc(-c2cc(C(=O)N[C@]3(C(=O)O)CC[C@@H](C)CC3)cc(F)c2OC)cc1Cl` [Example 449, 1-[3-(5-Chloro-6-methoxy-pyridin-3-yl)-5-fluoro-4-methoxy-benzoylamino]-4-methyl-cyclohexanecarboxylic acid], the IC50 at human Edg-2 receptor was 100 to 1000 nM. Regarding `COc1ncc(C(=O)N[C@]2(C(=O)O)CC[C@H](C)CC2)cc1-c1cc(F)c(F)c(F)c1` [Example 313], the IC50 at human Edg-2 receptor is below 100 nM. Turning to `COc1ccc(C(=O)NC2(C(=O)O)CC2)cc1OCCc1cccc(C)c1` [Example 368], the IC50 on human Edg-2 receptor lay within 100 to 1000 nM. Consider `COCCOc1ccc(C(=O)N[C@]2(C(=O)O)CC[C@H](C)CC2)cc1OCCc1cccc(Cl)c1` [Example 113, cis-1-[3-[2-(3-Chloro-phenyl)-ethoxy]-4-(2-methoxy-ethoxy)-benzoylamio]-4-methyl-cyclohexanecarboxylic acid], for which the IC50 on human Edg-2 receptor was 100 to 1000 nM. In the case of `CC[C@H]1CC[C@](NC(=O)c2cnc(OC)c(-c3cc(F)cc(F)c3)c2)(C(=O)O)CC1` [Example 360, cis-1-{[5-(3,5-Difluoro-phenyl)-6-methoxy-pyridine-3-carbonyl]-amino}-4-ethyl-cyclohexanecarboxylic acid], the IC50 on human Edg-2 receptor was below 100 nM. For `COc1ccc(C(=O)NC2(C(=O)O)CCC(CF)CC2)cc1OCCc1cccc(C)c1` (stereo not shown) [Example 59, 4-Fluoromethyl-1-[4-methoxy-3-(2-m-tolyl-ethoxy)-benzoylamino]-cyclohexanecarboxylic acid], the IC50 at human Edg-2 receptor was below 100 nM.

In the case of `COc1ccc(C(=O)NC2(C(=O)O)CCCCCC2)cc1OCC(C)c1ccccc1` (stereo not shown) [Example 9], at human Edg-2 receptor, the IC50 was below 100 nM. As for `CC[C@H]1CC[C@](NC(=O)c2cc(F)c(OC)c(-c3ccc(OC)c(Cl)c3)c2)(C(=O)O)CC1` [Example 447, Cis-1-[(3′-chloro-5-fluoro-6,4′-dimethoxy-biphenyl-3-carbonyl)-amino]-4-ethyl-cyclohexanecarboxylic acid], the IC50 at human Edg-2 receptor was below 100 nM. Consider `CC[C@H]1CC[C@@](NC(=O)c2cnc(OC)c(-c3cccc(Cl)c3Cl)c2)(C(=O)O)CC1` [Example 309], for which the IC50 on human Edg-2 receptor is below 100 nM. Turning to `COc1ccc(C(=O)NC2(C(=O)O)CCC(C(F)(F)F)CC2)cc1OCCc1cccc(C)c1` (stereo not shown) [Example 369], the IC50 at human Edg-2 receptor fell in the range of 100 to 1000 nM. As to `COc1ncc(C(=O)NC2(C(=O)O)CCCCCC2)cc1-c1cccc(OC(F)(F)F)c1` [Example 96], the IC50 at human Edg-2 receptor was below 100 nM. For `CC[C@H]1CC[C@@](NC(=O)c2cnc(OC)c(-c3cccc(C(F)(F)F)c3)c2)(C(=O)O)CC1` [Example 316], the IC50 at human Edg-2 receptor was below 100 nM. `CC[C@H]1CC[C@](NC(=O)c2cnc(OCCO)c(-c3cc(F)cc(F)c3)c2)(C(=O)O)CC1` [Example 415]: the IC50 on human Edg-2 receptor was below 100 nM. In the case of `COc1ccc(C(=O)N[C@]2(C(=O)O)CC[C@@H](C)CC2)cc1-c1cccc(C(F)(F)F)c1` [Example 334], the IC50 on human Edg-2 receptor was in the range of 100 to 1000 nM. In the case of `CC[C@H]1CC[C@@](NC(=O)c2ccc(OCCO)c(-c3cccc(C(F)(F)F)c3)c2)(C(=O)O)CC1` [Example 386, trans-4-Ethyl-1-{[6-(2-hydroxy-ethoxy)-3′-trifluoromethyl-biphenyl-3-carbonyl]-amino}-cyclohexanecarboxylic acid], the IC50 on human Edg-2 receptor was below 100 nM. With `CC[C@H]1CC[C@](NC(=O)c2ccc(C3COC3)c(OCCc3cccc(C)c3)c2)(C(=O)O)CC1` [Example 130, cis-4-Ethyl-1-[4-oxetan-3-yl-3-(2-m-tolyl-ethoxy)-benzoylamino]-cyclohexanecarboxylic acid], the IC50 on human Edg-2 receptor was below 100 nM.

The values are drawn from patent US9018383B2, “Acylamino-substituted cyclic carboxylic acid derivatives and their use as pharmaceuticals” (Sanofi, priority 2009, dated 2015).
